# Measured values: patent US20260035387A1 (BIOGEN MA INC., priority 2022, published 2026)
# Tested on: mutant Huntington (HTT) protein
# Assay: HTT Mutant HTRF iPSC assay (mHTT protein lowering)
# Format: cell-based
# Conditions: human iPSC derived from a HTT patient with a poly-Q49 mutation
row,Structure (SMILES),IC50 [nM]
1,"Cc1cn2cc(NC(=O)c3cc4ccc(N5CCC6OCCN(C)C6C5)nc4s3)ccc2n1 (stereo not shown) [Compound 15, 6-(4-methylhexahydro-2H-pyrido[4,3-b][1,4]oxazin-6(5H)-yl)-N-(2-methylimidazo[1,2-a]pyridin-6-yl)thieno[2,3-b]pyridine-2-carboxamide]",100 to 1000
2,"COc1cn2nc(C)cc2cc1NC(=O)c1cc2ccc(N3CCC(N(C)C)C3)nc2s1 (single isomer, unassigned) [Compound 206]",< 100
3,"COc1cc2nn(C)cc2cc1NC(=O)c1cc2ccc(C3CCCN(C)C3)nc2s1 (single isomer, unassigned) [Compound 186]",< 100
4,"Cc1cn2cc(NC(=O)c3cc4ccc(N5CCC(N(C)C)C5)nc4s3)ccc2n1 (stereo in doubt) [Compound 25, (R)-6-(3-(dimethylamino)pyrrolidin-1-yl)-N-(2-methylimidazo[1,2-a]pyridin-6-yl)thieno[2,3-b]pyridine-2-carboxamide]",100 to 1000
5,"Cc1cn2nc(NC(=O)c3cc4ccc(N5CC[C@H](N(C)C)C5)nc4s3)ccc2n1 [Compound 52, (S)-6-(3-(dimethylamino)pyrrolidin-1-yl)-N-(2-methylimidazo[1,2-b]pyridazin-6-yl)thieno[2,3-b]pyridine-2-carboxamide]",100 to 1000
6,"COc1cc2nn(C)cc2cc1NC(=O)c1cc2ccc(N3CC[C@@H](N(C)C)C3)nc2s1 (single isomer, unassigned) [Compound 241]",< 100
7,"COc1nc(NC(=O)c2cc3ccc(C4CCN(C)CC4)nc3s2)cn2cc(C)nc12 [Compound 184, N-(8-methoxy-2-methylimidazo[1,2-a]pyrazin-6-yl)-6-(1-methylpiperidin-4-yl)thieno[2,3-b]pyridine-2-carboxamide]",< 100
8,"CN(C)C1CCN(c2ccc3cc(C(=O)Nc4ccc5cncn5c4)sc3n2)C1 (stereo not shown) [Compound 62, 6-(3-(dimethylamino)pyrrolidin-1-yl)-N-(imidazo[1,5-a]pyridin-6-yl)thieno[2,3-b]pyridine-2-carboxamide]",1000 to 9000
9,"Cc1cn2cc(NC(=O)c3cc4nc(N5CC[C@H](N(C)C)C5)ccc4o3)cc(F)c2n1 [Compound 8, 5-[(3S)-3-(dimethylamino)pyrrolidin-1-yl]-N-(8-fluoro-2-methyl-imidazo[1,2-a]pyridin-6-yl)furo[3,2-b]pyridine-2-carboxamide]",1000 to 9000
10,"Cc1cn2cc(NC(=O)c3cc4ccc(N5CCC(N6CC7(CC7)C6)C5)nc4s3)cc(F)c2n1 (stereo not shown) [Compound 207, 6-(3-(5-azaspiro[2.3]hexan-5-yl)pyrrolidin-1-yl)-N-(8-fluoro-2-methylimidazo[1,2-a]pyridin-6-yl)thieno[2,3-b]pyridine-2-carboxamide]",< 100
11,"Cc1cn2cc(NC(=O)c3cc4nc(C5CCN(C)CC5)ccc4o3)cc(F)c2n1 [Compound 163, N-(8-fluoro-2-methyl-imidazo[1,2-a]pyridin-6-yl)-5-(1-methyl-4-piperidyl)furo[3,2-b]pyridine-2-carboxamide]",100 to 1000
12,"Cc1cn2cc(NC(=O)c3cc4nc(N5CCNCC5)ccc4o3)cc(F)c2n1 [Compound 169, N-(8-fluoro-2-methylimidazo[1,2-a]pyridin-6-yl)-5-(piperazin-1-yl)furo[3,2-b]pyridine-2-carboxamide]",< 100
13,"Cc1cn2cc(NC(=O)c3cc4ccc(N5C[C@H]6CCN[C@H]6C5)nc4s3)cc(F)c2n1 [Compound 245, N-(8-fluoro-2-methylimidazo[1,2-a]pyridin-6-yl)-6-((3aR,6aR)-hexahydropyrrolo[3,4-b]pyrrol-5(1H)-yl)thieno[2,3-b]pyridine-2-carboxamide]",< 100
14,"Cc1cn2cc(NC(=O)c3nc4ccc(N5C[C@@H]6CN(C)C[C@@H]65)nc4s3)cc(F)c2n1 [Compound 106, N-(8-fluoro-2-methylimidazo[1,2-a]pyridin-6-yl)-5-((1S,5R)-3-methyl-3,6-diazabicyclo[3.2.0]heptan-6-yl)thiazolo[5,4-b]pyridine-2-carboxamide]",100 to 1000
15,"Cc1cn2cc(NC(=O)c3nc4ccc(N5CCC6(CCN6)C5)nc4s3)cc(F)c2n1 (stereo not shown) [Compound 112, N-(8-fluoro-2-methylimidazo[1,2-a]pyridin-6-yl)-5-(1,6-diazaspiro[3.4]octan-6-yl)thiazolo[5,4-b]pyridine-2-carboxamide]",< 100
16,"Cc1cn2cc(NC(=O)c3cc4ccc(N5CC6(CCCN(C)C6)C5)nc4s3)cc(F)c2n1 [Compound 76, N-(8-fluoro-2-methylimidazo[1,2-a]pyridin-6-yl)-6-(6-methyl-2,6-diazaspiro[3.5]nonan-2-yl)thieno[2,3-b]pyridine-2-carboxamide]",100 to 1000
17,"Cc1cn2cc(NC(=O)c3nc4ccc(C5CCN(C)C5)nc4s3)cc(F)c2n1 (stereo not shown) [Compound 131, N-(8-fluoro-2-methylimidazo[1,2-a]pyridin-6-yl)-5-(1-methylpyrrolidin-3-yl)thiazolo[5,4-b]pyridine-2-carboxamide]",< 100

row,Structure (SMILES),IC50 [nM]
1,"Cc1cn2cc(NC(=O)c3cc4ccc(N5C[C@@H]6[C@H](C5)[C@H]6N(C)C)nc4s3)ccc2n1 [Compound 24, 6-((1R,5S,6s)-6-(dimethylamino)-3-azabicyclo[3.1.0]hexan-3-yl)-N-(2-methylimidazo[1,2-a]pyridin-6-yl)thieno[2,3-b]pyridine-2-carboxamide]",1000 to 9000
2,"CCN1CCC(Oc2ccc3cc(C(=O)Nc4cc(F)c5nc(C)cn5c4)sc3n2)C1 (racemic) [Compound 161, 6-((1-ethylpyrrolidin-3-yl)oxy)-N-(8-fluoro-2-methylimidazo[1,2-a]pyridin-6-yl)thieno[2,3-b]pyridine-2-carboxamide]",< 100
3,"Cc1cn2cc(NC(=O)c3nc4ccc(N5CC[C@@H](N6CCC6)C5)nc4s3)cc(F)c2n1 (stereo in doubt) [Compound 92, (rel-(R)-5-(3-(azetidin-1-yl)pyrrolidin-1-yl)-N-(8-fluoro-2-methylimidazo[1,2-a]pyridin-6-yl)thiazolo[5,4-b]pyridine-2-carboxamide]",< 100
4,"Cc1cn2cc(NC(=O)c3cc4ccc(N5C[C@H]6CCN(C)[C@H]6C5)nc4s3)cc(F)c2n1 [Compound 70, N-(8-fluoro-2-methylimidazo[1,2-a]pyridin-6-yl)-6-((3aR,6aR)-1-methylhexahydropyrrolo[3,4-b]pyrrol-5(1H)-yl)thieno[2,3-b]pyridine-2-carboxamide]",< 100
5,"Cc1cn2nc(NC(=O)c3cc4ccc(N5CC[C@@H](N(C)C)C5)nc4s3)cc(C)c2n1 [Compound 56, (R)-6-(3-(dimethylamino)pyrrolidin-1-yl)-N-(2,8-dimethylimidazo[1,2-b]pyridazin-6-yl)thieno[2,3-b]pyridine-2-carboxamide]",1000 to 9000
6,"Cc1cn2cc(NC(=O)c3cc4ccc(N5CC[C@]6(CCCN6C)C5)nc4s3)nc(C(F)F)c2n1 (single isomer, unassigned) [Compound 255]",< 100
7,"Cc1cc(NC(=O)c2cc3nc(N4CCC(N(C)C)C4)ccc3o2)cc2cn(C)nc12 (stereo not shown) [Compound 7, N-(2,7-dimethyl-2H-indazol-5-yl)-5-(3-(dimethylamino)pyrrolidin-1-yl)furo[3,2-b]pyridine-2-carboxamide]",1000 to 9000
8,"Cc1cn2cc(NC(=O)c3cc4ncc(C5CCC(N)CC5)nc4s3)cc(F)c2n1 (racemic) [Compound 141, 3-(4-aminocyclohexyl)-N-(8-fluoro-2-methylimidazo[1,2-a]pyridin-6-yl)thieno[2,3-b]pyrazine-6-carboxamide]",1000 to 9000
9,"Cc1nc(NC(=O)c2cc3ccc(N4CCC5(CCCN5C)C4)nc3s2)cc2cn(C)nc12 (stereo not shown) [Compound 230, N-(2,7-dimethyl-2H-pyrazolo[3,4-c]pyridin-5-yl)-6-(1-methyl-1,7-diazaspiro[4.4]nonan-7-yl)thieno[2,3-b]pyridine-2-carboxamide]",< 100
10,"Cc1cn2cc(NC(=O)c3cc4ccc(N5CC(N(C)C)C5)nc4s3)cc(F)c2n1 [Compound 204, 6-(3-(dimethylamino)azetidin-1-yl)-N-(8-fluoro-2-methylimidazo[1,2-a]pyridin-6-yl)thieno[2,3-b]pyridine-2-carboxamide]",< 100
11,"Cc1cn2cc(NC(=O)c3cc4ncc(C5=CC(N)CCC5)nc4s3)cc(F)c2n1 (racemic) [Compound 145, 3-(3-aminocyclohex-1-en-1-yl)-N-(8-fluoro-2-methylimidazo[1,2-a]pyridin-6-yl)thieno[2,3-b]pyrazine-6-carboxamide]",100 to 1000
12,"Cc1cn2cc(NC(=O)c3cc4ccc(N5C[C@H]6CNC[C@H]6C5)nc4s3)cc(F)c2n1 [Compound 80, N-(8-fluoro-2-methylimidazo[1,2-a]pyridin-6-yl)-6-((3aR,6aS)-hexahydropyrrolo[3,4-c]pyrrol-2(1H)-yl)thieno[2,3-b]pyridine-2-carboxamide]",100 to 1000
13,"Cc1cn2cc(NC(=O)c3nc4ccc(C5CCN(C)CC5)nc4s3)nc(C)c2n1 [Compound 136, N-(2,8-dimethylimidazo[1,2-a]pyrazin-6-yl)-5-(1-methylpiperidin-4-yl)thiazolo[5,4-b]pyridine-2-carboxamide]",1000 to 9000
14,"Cc1cn2cc(NC(=O)c3cc4ncc(N5C[C@@H]6CN(C)C[C@@H]65)nc4s3)cc(F)c2n1 [Compound 268, N-(8-fluoro-2-methyl-imidazo[1,2-a]pyridin-6-yl)-3-[(1S,5R)-3-methyl-3,6-diazabicyclo[3.2.0]heptan-6-yl]thieno[2,3-b]pyrazine-6-carboxamide]",100 to 1000
15,"COc1cc(NC(=O)c2cc3nc(N4CCC5(CCCN5C)C4)ccc3o2)cn2cc(C)nc12 (single isomer, unassigned) [Compound 174]",< 100
16,"CCN1CCN(c2ccc3nc(C(=O)Nc4cn5cc(C)nc5c(OC)n4)sc3n2)CC1 [Compound 96, 5-(4-ethylpiperazin-1-yl)-N-(8-methoxy-2-methylimidazo[1,2-a]pyrazin-6-yl)thiazolo[5,4-b]pyridine-2-carboxamide]",< 100
17,"Cc1cn2cc(NC(=O)c3cc4ccc(N5CCC6(CN(C)C6)C5)nc4s3)nc(C)c2n1 [Compound 226, N-(2,8-dimethylimidazo[1,2-a]pyrazin-6-yl)-6-(2-methyl-2,6-diazaspiro[3.4]octan-6-yl)thieno[2,3-b]pyridine-2-carboxamide]",< 100
